Usually melting point stands for the temperature, or range, at which the solid turns liquid. Compound `O=C1C(=O)N(C(c2ccccc2)(c2ccccc2)c2ccccc2)CCN1Cc1cc(=O)c(OCc2ccccc2)cn1Cc1ccccc1` yielded a melting point of 165 to 168 °C.
Turning to `CN1CCC(OC(c2ccccc2)c2nc3cccc(O)c3[nH]2)CC1` (stereo unspecified), the melting point is 170 °C.
Consider `COC(=O)C[C@H](O)C[C@H](O)CCc1c(-c2ccc(F)cc2)c(-c2ccccc2)c(C(=O)Nc2ccccc2)n1C(C)C`, for which the melting point was 154 to 157 °C.
Then `O=C(O)c1cccc(N2C(=O)c3ccc(C(=O)O)cc3C2=O)c1`, with > 380 °C; and `CCOP(=O)(CC(=O)NC1CC1)OCC`, with 51 to 56 °C.
Then `CCNC(=O)c1ccc(-n2nnc(C(=O)NC3CC3)c2COCc2ccccc2)c(O)c1`, with 146 °C.
`CCCCCCCCCCCCCCCCOC(=O)c1ccc(Cl)c(Nc2cc(=O)n(-c3c(Cl)cc(Cl)cc3Cl)n2C(=O)OCc2ccccc2)c1`: the melting point lay within 128 to 131 °C.
With `CN(CCCOC(=O)Cc1ccccc1Nc1c(Cl)cccc1Cl)CC1(SN=O)CCCCC1`, the melting point was 58 to 60 °C.
In turn, `Cc1nc(-c2cn(CCC3CC3)nn2)sc1C(=O)NCc1cccnc1` yielded a melting point of 124 to 125 °C.
Consider `Cc1ccc(-c2nc(COc3ccc(CCCCn4ccnc4)cc3)co2)o1`, for which the melting point was 91 to 92 °C.
As for `CC(C)(O)C#Cc1ccc2c(c1)NC(=O)CC(c1cccc(C#N)c1)=N2`, the figure is 243 °C; as for `CCCCC(CC)COc1ccc2cc3cc(OCC(CC)CCCC)ccc3cc2c1` (stereo unspecified), 60 to 62 °C; as for `NC(=O)N(O)CC1=CCC(c2ccccc2)CC1` (stereo unspecified), 142 to 143 °C.
`CC12CCC(O)CC1=CCC1C2CCC2(C)C(n3cnc4ccccc43)=CCC12` (stereo unspecified): the melting point was in the range of 189 to 190 °C.
The compound `N#Cc1cnc(N[C@H]2CC[C@H](O)CC2)c([N+](=O)[O-])c1` gave a melting point of 157 to 158 °C.
`COc1ccc(C(=O)NCc2cccc3c2C(=O)N(C2CCC(=O)NC2=O)C3=O)cc1` (stereo unspecified): the melting point was 193 to 195 °C.
In turn, `C=CCc1cc(NC(C)=O)ccc1OCC1(O)CN2CCC1CC2` (stereo unspecified) displayed a melting point of 170 to 172 °C.
Then `COc1cc2ncnc(N3CCN(C(=O)Nc4ccncc4)CC3)c2cc1OC`, with 141 to 143 °C; and `Cc1c(F)c(Oc2cccnc2)nc(Oc2cccc(C(=N)N)c2)c1F`, with 213 to 214 °C.
`Clc1ccc2c(c1)C(c1ccccc1Cl)=CCc1nnc(Br)n1-2` returned a melting point of 234 °C.
On to `CCN1C(=O)C(=O)N(c2ccc(F)cc2)C1=S`, for which the melting point lay within 172 to 174 °C.
Then `Cn1c(C(=O)N(Cc2cc(C(F)(F)F)cc(C(F)(F)F)c2)Cc2cc(C(F)(F)F)cc(C(F)(F)F)c2)c(-c2ccc(F)cc2)c2cccnc2c1=O`, with 252 to 254 °C; and `CNCC1(CF)CCN(c2c(F)cc3c(=O)c(C(=O)O)cn(C4CC4)c3c2OC)C1` (stereo unspecified), with 208 to 210 °C.
Turning to `CCNC(=S)NC1CCCc2sccc21` (stereo unspecified), the melting point is 106 to 112 °C.
Turning to `COc1ccc(N)cc1NC(C)=O`, the melting point worked out at 83 °C.
`CN(CCSCc1nc[nH]c1CSCCN(C)C(N)=S)C(N)=S`: the melting point was in the range of 154 to 155 °C.
`COc1ccc(OCC(O)CN2CCN(c3ccccc3C(=O)O)CC2)c(C(C)(C)C)c1` (stereo unspecified) registered a melting point of 171 to 172 °C.
As to `CCOC(=O)C[C@H]1CC[C@H](CNC(C)=O)CC1`, the melting point was 74 to 76 °C.
As for `N#Cc1cccc(C(=O)Nc2cccc(-n3nc(C(F)(F)F)cc3C(F)(F)F)c2)c1`, the figure is 160 to 161 °C.
Compound `O=C(CC(C(=O)O)c1ccccc1)Nc1cccc(/C=C/c2nc(C3CCC3)cs2)c1` (stereo unspecified) returned a melting point of 202 to 203 °C.
`CCOC(=O)C(C#N)=C(SC)N1CCc2ccccc2CC1` came in with a melting point of 88 to 93 °C.
In turn, `Clc1ccc(C2NN=C(c3cccnc3)S2)cc1` (stereo unspecified) showed a melting point of 108 to 110 °C.
For the compound `COc1c(-c2ccc3cc(NS(C)(=O)=O)ccc3c2)cc(-n2ccc(=O)[nH]c2=O)cc1C(C)(C)C(=O)O`, the melting point is > 300 °C.
Then `O=C(O)C(=O)CC(=O)c1cccn1Cc1cccc(F)c1`, with 147 to 149 °C; and `ClCc1cccc2c1CCCC2`, with 51 to 52 °C; and `Nc1cc(C(=O)O)cc(OCc2ccccc2)c1-c1ccccc1`, with 161 to 162 °C.
The compound `O=C(O)C=CC(=O)NCCCCCCCCCCCCCCCCCCCC(=O)O` yielded a melting point of 146 to 148 °C.
`O=Cc1ccc(OCc2ccccc2)c(O)c1` came in with a melting point of 118 to 120 °C.
Consider `CN1C(=O)CN(c2cccc(C(F)(F)F)c2)NC1=O`, for which the melting point lay in the range of 163 to 165 °C.
For `O=C(Nc1ccc(C(F)(F)F)cc1)c1cccc(Oc2cccc(C(F)(F)F)c2)n1`, the melting point lay within 130 to 132 °C.
As for `O=C(Nc1ccc2c(c1)OCO2)O[C@@H]1CN=C(c2ccccc2)O[C@H]1c1ccccc1` (racemic), the melting point came out at 138 °C.
The compound `CC(C(=O)c1ccc(F)cc1F)n1cnc(-c2ccc(OCc3ccccc3)cc2)n1` (stereo unspecified) showed a melting point of 80 to 97 °C.
As for `O=C1CC(c2cccc(-n3ccnc3)c2)=Nc2cc(N3CCC(O)CC3)c(-c3ccc(F)cc3)cc2N1`, the figure is 238 to 240 °C; as for `CN(C)C=C(C#N)C(=O)Nc1cc(Cl)ccc1Cl`, 175 to 176 °C; as for `CC(C)Oc1ccc(Cl)c2c(=O)c3ccccc3sc12`, 91 to 93 °C.
Then `N#Cc1cnc2sc(C#Cc3ccccn3)cc2c1Nc1ccc2[nH]ccc2c1`, with > 260 °C; and `Cc1nnc2n1-c1sc(Cl)cc1C(c1ccccc1[N+](=O)[O-])=NC2`, with 210 to 212 °C.
Regarding `CC(C)(C)NC(=O)N(C(=O)C1CCC2C3CC=C4C=C(C(=O)O)CCC4(C)C3CCC12C)C(C)(C)C` (stereo unspecified), the melting point is 118 to 120 °C.
With `CCOC(=O)C1=C(C)N(C(C)=O)C(c2csc(C)n2)=NC1c1cccc(F)c1` (stereo unspecified), the melting point lay within 127 to 130 °C.
As for `NC(=O)NN=C1c2ncc(Cl)cc2C=CC1Cl` (stereo unspecified), the figure is > 280 °C.
In turn, `COc1ccnc(CCc2nc3cc(-c4ccc(S(=O)(=O)NC5CCCCC5)cc4)cnc3[nH]2)c1` displayed a melting point of 199 to 200 °C.
For `Cc1cc(CCCCCOc2ccc(-c3nccs3)cc2)on1`, the melting point lay within 78 to 80 °C.
`O=C(NCC(=O)N(c1ccccc1)c1ccccc1)c1ccc2ccccc2c1` showed a melting point of 205 °C.
The compound `O=S(=O)(Cl)c1ccc2oc3cc(Br)ccc3c2c1` registered a melting point of 191 to 193 °C.
Take `CCCn1c(=O)c2nc(-c3cccc(/C=C/C(=O)O)c3)[nH]c2n(CC2CCCCC2)c1=O`: the melting point is > 350 °C.
`O=C(NCCNCC(O)COc1ccc(O)cc1F)C1CCOCC1` (stereo unspecified) returned a melting point of 101 to 104 °C.
For `Cc1cc(C)c2c(c1)SCCC2=NO`, the melting point fell in the range of 170 to 174 °C.
`O=C1NC(=O)C2(C=COc3c2ccc2ncccc32)N1` (stereo unspecified) registered a melting point of 330 °C.
Turning to `COc1ccc(-c2ccn3c(=O)c(C(=O)O)ccc3c2)cc1`, the melting point was > 250 °C.
Regarding `C=CCNc1nc(NCCC)nc2c(C)csc12`, the melting point was in the range of 74 to 75 °C.
Then `CCOCn1c(-c2ccc(Cl)cc2)c(C#N)c(Sc2ccc(Cl)cc2)c1C(F)(F)F`, with 98 to 100 °C.

Values taken from a melting point compilation (Tetko et al.; mined from patent text by program, amines drawn as free bases though some values may be those of a salt).
